Experimental findings from patent US20090169652A1, “Personal Care Compositions” (priority 2007, published 2009) are described below.

The test system of one test is skin. In words: clinical study of skin condition. It is filed as in vivo. To be noted: clinical study by applicant.
The subject of test [1] is Xgene human skin equivalent culture model. In words: collagen expression in Xgene human skin equivalent culture model. It is filed as cell-based.
Test [2] concerns MatTek human skin equivalent culture model. In words: collagen expression in MatTek human skin equivalent culture model. It is filed as cell-based.

Consider `CC(=O)C1C(=O)C=C(C)OC1=O` (stereo not shown) [SDA, sodium dehydroacetic acid], for which, in the test on skin, the “appearance of fine lines and wrinkles” value is “unexpected improvement in the appearance of fine lines and wrinkles”; the “skin condition related to reduced oil” value is “expected improvements in skin condition related to reduced oil”. The collagen expression entry in test [1] is reported as “up-regulated collagen expression”. In test [2], the collagen expression result is “up-regulated collagen expression”.
